# Reference: ChEMBL document CHEMBL1148818, “1,2,4-triazol-3-yl-thiopropyl-tetrahydrobenzazepines: a series of potent and selective dopamine D(3) receptor antagonists” (J Med Chem, 2007)
# Experiments:
# in vivo [1] = settings: Sprague-Dawley, rat
# in vivo [2] = settings: Sprague-Dawley, rat; remark: listed apart in the source
# in vivo [3] = settings: Sprague-Dawley, rat, whole blood
# in vitro = settings: human, liver microsomes
bioavailability (in vivo [1]) [%],Vd (in vivo [2]) [L/kg],clearance (in vivo [3]) [mL/min/kg],CLint scaled (in vitro) [mL/min/g],SMILES
24,3.4,38,,Cc1ccc2c(-c3nnc(SCCCN4CCc5ccc(-c6cc(C)on6)cc5CC4)n3C)cccc2n1
27,7.9,59,4.7,Cc1ccc2c(-c3nnc(SCCCN4CCc5ccc(-c6ncc(C)o6)cc5CC4)n3C)cccc2n1
,,,6.4,Cc1cnc(-c2ccc3c(c2)CCN(CCCSc2nnc(-c4cccn4C)n2C)CC3)o1
